Consider two molecules from ChEMBL document CHEMBL1201862, “PubChem BioAssay data set” (2004).

Usually EC50 stands for the concentration that produces a half-maximal response. What is called AC50 is the midpoint of the concentration-response curve, whichever way the signal moves.

A short description of assay [1]: decrease of insulin promoter-GFP reporter – imaging, high-content screening, mouse beta cells (AID 1628). It is filed as functional. As to conditions: MIN6.
Assay [2] relates to Streptococcus sp. 'group A'. Nature of the assay: Streptococcus pyogenes SK(-)GAS viability under kanamycin – luminescence, BacTiterGlo, confirmation, counter-screen for streptokinase expression inhibitor project, dose response (AID 1900). It is filed as functional, organism-based. Background: Counterscreens check selectivity or assay interference.
Assay [3] is described as follows: cells. It counts as functional, cell-based.
Assay [4] is described as follows: MIN6 cell viability loss – mouse insulinoma, cytotoxicity control, dose response (AID 2122).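 Also: confirmatory high-throughput counterscreen run to flag cytotoxic compounds.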 It counts as functional.
The target of assay [5] is T1, Streptokinase A (Streptococcus pyogenes serotype M1, UniProt P10520).
T1 sequence (P10520 whole entry): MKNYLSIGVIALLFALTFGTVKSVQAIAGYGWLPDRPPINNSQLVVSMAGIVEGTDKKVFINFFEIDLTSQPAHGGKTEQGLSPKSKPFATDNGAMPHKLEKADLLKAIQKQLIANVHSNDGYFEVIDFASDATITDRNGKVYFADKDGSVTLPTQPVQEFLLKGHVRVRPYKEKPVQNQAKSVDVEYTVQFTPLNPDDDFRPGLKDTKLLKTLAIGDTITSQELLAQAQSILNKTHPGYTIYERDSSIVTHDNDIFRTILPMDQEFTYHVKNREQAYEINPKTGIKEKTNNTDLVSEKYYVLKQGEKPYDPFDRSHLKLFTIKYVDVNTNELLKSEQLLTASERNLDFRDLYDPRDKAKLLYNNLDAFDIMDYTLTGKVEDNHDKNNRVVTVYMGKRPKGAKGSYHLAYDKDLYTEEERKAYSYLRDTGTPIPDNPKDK
Nature of the assay: viability-normalized secreted streptokinase activity reduction – plasminogen activation absorbance, OD405, dose response (AID 1914).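 Also: secreted streptokinase activity via plasminogen activation per viability signal from cell pellet.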 It is filed as functional, Streptococcus pyogenes M1 GAS.

Assay [6] is described as follows: Trypanosoma cruzi growth suppression in host cells – NIH3T3 host cells, beta-gal luminescence, confirmation (AID 2044).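 Also: intracellular parasites grown in NIH/3T3 mouse fibroblasts as host cells; luminescent beta-galactosidase reporter signal from transgenic T. cruzi replicating inside host cells; inhibitors lower the luminescence signal.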 It is filed as functional, cell-based.
A short description of assay [7]: cells. It counts as functional, cell-based. The source holds these as a separate data set.
Assay [8] in a line: NIH3T3 cell viability loss – ATP luminescence, mouse fibroblasts, counter-screen, dose response (AID 2010).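 Also: cells exposed to compound for about 90 hours before reading.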 It counts as functional, cell-based.
The subject of assay [9] is Streptococcus. In words: GAS UMAA2166 growth inhibition – luminescence, BacTiterGlo, counter-screen for streptokinase expression inhibitor project, dose response (AID 1915).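 Also: potency for reduction of bacterial viability or growth.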 It is filed as functional, organism-based.
A short description of assay [10]: Luminescence Cell-Based Dose Retest to Confirm Inhibitors of Cancer Stem Cells. [Related pubchem assays (depositor defined):AID2717, AID2721]. It is filed as functional. The conditions noted are these: Homo sapiens.
Assay [11] addresses T2, Type-1 angiotensin II receptor (Homo sapiens, UniProt P30556).
T2 sequence (P30556 whole entry): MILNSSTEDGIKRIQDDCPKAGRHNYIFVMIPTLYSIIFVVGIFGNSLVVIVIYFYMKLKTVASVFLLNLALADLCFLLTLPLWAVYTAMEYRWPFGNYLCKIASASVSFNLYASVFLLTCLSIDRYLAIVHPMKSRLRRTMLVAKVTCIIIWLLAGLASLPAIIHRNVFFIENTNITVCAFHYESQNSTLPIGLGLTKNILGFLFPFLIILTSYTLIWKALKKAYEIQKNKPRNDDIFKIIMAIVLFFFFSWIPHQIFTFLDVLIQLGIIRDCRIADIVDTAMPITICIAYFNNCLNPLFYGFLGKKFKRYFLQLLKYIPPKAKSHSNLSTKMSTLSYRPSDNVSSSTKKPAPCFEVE
Nature of the assay: agonist activity at AGTR1 – cell-based, uHTS hits, selectivity assay for APJ receptor agonist project, dose response (AID 488865).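 Also: beta-arrestin recruitment to AT1 measured by enzyme fragment complementation luminescence.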 It is filed as functional.

Assay [12] deals with INS1. In words: INS-1E survival protection against cytokine death – cell-based, luminescence, retest, dose response (AID 449756).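 Also: cell death triggered by IL-1 beta plus TNF-alpha plus IFN-gamma mixture; protective hits raise ATP signal compared with cytokine alone wells.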 It counts as functional. The conditions noted are these: Rattus norvegicus.
Assay [13] can be described thus: reduction of Shn3 3'UTR-driven luciferase in osteoblasts – cell-based, Clone20 osteoblasts, firefly luciferase, cherry-picked, dose response (AID 624132).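 Also: firefly luciferase luminescence from reporter carrying the Shn3 3'UTR in osteoblasts.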 It is filed as functional.
Assay [14] can be described thus: loss of viability in HepG2 cells – cell-based, CellTiter-Glo, cherry-picked, cytotoxicity control for Shn3 inhibitor project, dose response (AID 624134). It counts as functional. (Cellular ATP, detected with luciferase, serves as a proxy for viable cell number.)
Assay [15] in a line: non-specific 3'UTR reporter inhibition in Clone20-Shn3RL – cell-based, Renilla luciferase, cherry-picked, counter-screen for Shn3 inhibitor project, dose response (AID 624133). It counts as functional.
For assay [16], the target named is T3, Probable nicotinate-nucleotide adenylyltransferase (Staphylococcus aureus (strain N315), UniProt P65502). It counts as functional, Staphylococcus aureus subsp. aureus N315.
Assay [17] addresses T3, Probable nicotinate-nucleotide adenylyltransferase. It counts as functional, Staphylococcus aureus subsp. aureus N315. The conditions noted are these: read-out: IC50_Mean.
In assay [18] the target is Paired box protein Pax-8 (Homo sapiens, UniProt Q06710). In words: PAX8 transcriptional activity inhibition in RMG-I – RMG-I cells, luciferase, cherry-pick, dose response (AID 687027).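 Also: luciferase reporter driven by Pax8 target thyroperoxidase promoter measured by SteadyGlo luminescence.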 It is filed as functional, cell-based.
Assay [19] is described as follows: inhibitors acting on PAX2 in cells – cell-based, plate reader, dry powder samples, selectivity assay for PAX8 inhibitor project, dose response (AID 743048).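 Also: HEK293 cells carrying a WT1 promoter luciferase reporter driven by expressed Pax2; potency is for inhibition of Pax2 driven reporter signal.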 It counts as functional.
The nature of assay [20]: COV362 cell viability loss – plate reader, dry powder, SA12, cytotoxicity control for PAX8 inhibitor project, dose response (AID 743144). It is filed as functional, cell-based.
A short description of assay [21]: toxicity toward immortalized ovarian surface epithelium – cell-based, plate reader, dry powder samples, cytotoxicity control for PAX8 inhibitor project, dose response (AID 743045). It counts as functional.
A short description of assay [22]: A2780 cell killing – plate reader, dry powder samples, cytotoxicity control, dose response (AID 743046). It counts as functional, cell-based.
Assay [23] in a line: OVCAR-3 cell viability loss – plate reader, dry powder samples, PAX8 inhibitor project, dose response (AID 743044). It counts as functional, cell-based.
A short description of assay [24]: PAX5 cellular inhibition readout – cell-based, plate reader, dry powder samples, selectivity assay for PAX8 inhibitor project, dose response (AID 743047).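 Also: HEK293 cells carrying a Pax5 driven CD19 promoter luciferase reporter; potency of inhibitors that lower reporter luminescence.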 It is filed as functional.
A short description of assay [25]: IGROV1 cell killing – plate reader, dry powder samples, PAX8 inhibitor project, dose response (AID 743043). The conditions noted are these: IGROV-1. It is filed as functional, cell-based.
The nature of assay [26]: OVCAR4 cell viability loss – plate reader, dry powder, SA11, cytotoxicity control for PAX8 inhibitor project, dose response (AID 743150). It is filed as functional, cell-based. As to conditions: OVCAR-4.
Assay [27] in a line: COV434 cell viability loss – plate reader, dry powder, SA7, cytotoxicity control for PAX8 inhibitor project, dose response (AID 743145). It is filed as functional, cell-based.
A short description of assay [28]: OV-90 cell viability loss – plate reader, dry powder, SA8, PAX8 inhibitor project, dose response (AID 743149). It counts as functional, cell-based.
Assay [29] can be described thus: PAX8-dependent cell viability loss – plate reader, dry powder, dose response (AID 743049). It counts as functional, cell-based.
Assay [30] relates to Escherichia coli. Nature of the assay: microbe, parasite or virus in culture.
For assay [31], the target named is Intestinal-type alkaline phosphatase (Mus musculus, UniProt P24822). Nature of the assay: PubChem AID 488875. It is filed as functional.
Assay [32] concerns the target T4, Intestinal-type alkaline phosphatase (Homo sapiens, UniProt P09923). Nature of the assay: human intestinal alkaline phosphatase activators, dose response, biochemical, luminescence, uHTS hits (AID 463120). It counts as functional.
For assay [33], the target named is T4, Intestinal-type alkaline phosphatase. Nature of the assay: activation of human intestinal alkaline phosphatase – biochemical, luminescent, uHTS hits, set 2, dose response (AID 488817).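 Also: potency of activators that raise enzyme activity.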 It counts as functional.
Assay [34] has as its target T5, Alkaline phosphatase, tissue-nonspecific isozyme (Homo sapiens, UniProt P05186).
T5 sequence (P05186 whole entry): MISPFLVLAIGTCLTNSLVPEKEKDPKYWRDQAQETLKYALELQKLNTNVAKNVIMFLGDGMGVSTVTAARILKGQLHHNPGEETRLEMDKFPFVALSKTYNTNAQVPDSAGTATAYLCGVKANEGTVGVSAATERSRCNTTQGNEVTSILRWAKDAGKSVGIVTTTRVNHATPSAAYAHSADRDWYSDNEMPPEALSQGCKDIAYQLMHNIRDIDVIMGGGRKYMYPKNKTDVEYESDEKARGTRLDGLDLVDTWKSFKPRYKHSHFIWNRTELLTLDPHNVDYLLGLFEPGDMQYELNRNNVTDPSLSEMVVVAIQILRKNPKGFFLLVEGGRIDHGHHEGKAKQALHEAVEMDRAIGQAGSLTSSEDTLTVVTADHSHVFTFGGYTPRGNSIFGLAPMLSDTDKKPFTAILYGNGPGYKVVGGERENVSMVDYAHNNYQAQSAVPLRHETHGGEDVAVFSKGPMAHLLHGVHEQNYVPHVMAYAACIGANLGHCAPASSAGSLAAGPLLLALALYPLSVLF
In words: activation of tissue-nonspecific alkaline phosphatase – biochemical, TNAP isozyme, human IAP uHTS hits, selectivity assay for human IAP activator project, dose response (AID 488886).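 Also: potency of compounds raising TNAP activity as a selectivity check on IAP activators.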 It counts as functional.

The source made the active and inactive calls. Some results are limits rather than exact numbers.
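For IC50 Mean in this document: confirmatory dose-response retesting of NadD inhibitor hits first found in an ultra-high-throughput screen.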

T4 sequence (P09923 whole entry): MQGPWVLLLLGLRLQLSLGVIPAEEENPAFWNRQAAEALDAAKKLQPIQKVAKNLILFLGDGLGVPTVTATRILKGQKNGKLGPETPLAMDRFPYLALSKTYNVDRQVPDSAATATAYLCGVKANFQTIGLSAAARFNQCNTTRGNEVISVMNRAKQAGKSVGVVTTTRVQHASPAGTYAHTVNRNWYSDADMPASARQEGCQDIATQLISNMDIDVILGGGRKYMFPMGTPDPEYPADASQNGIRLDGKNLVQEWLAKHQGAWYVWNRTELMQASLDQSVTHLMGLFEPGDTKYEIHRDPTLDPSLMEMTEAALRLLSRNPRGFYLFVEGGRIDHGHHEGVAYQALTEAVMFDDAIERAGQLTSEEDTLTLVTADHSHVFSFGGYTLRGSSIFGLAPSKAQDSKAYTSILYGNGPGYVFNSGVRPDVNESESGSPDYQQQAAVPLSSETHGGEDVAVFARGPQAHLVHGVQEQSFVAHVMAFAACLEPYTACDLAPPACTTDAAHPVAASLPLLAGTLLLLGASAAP
T3 sequence (P65502 whole entry): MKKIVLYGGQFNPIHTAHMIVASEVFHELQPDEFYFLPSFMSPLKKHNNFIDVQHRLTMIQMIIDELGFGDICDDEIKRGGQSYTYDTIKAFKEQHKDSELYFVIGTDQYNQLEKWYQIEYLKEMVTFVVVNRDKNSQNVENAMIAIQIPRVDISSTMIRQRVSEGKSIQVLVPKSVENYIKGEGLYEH
Sequence of Intestinal-type alkaline phosphatase (Mus musculus, UniProt P24822) (P24822 whole entry): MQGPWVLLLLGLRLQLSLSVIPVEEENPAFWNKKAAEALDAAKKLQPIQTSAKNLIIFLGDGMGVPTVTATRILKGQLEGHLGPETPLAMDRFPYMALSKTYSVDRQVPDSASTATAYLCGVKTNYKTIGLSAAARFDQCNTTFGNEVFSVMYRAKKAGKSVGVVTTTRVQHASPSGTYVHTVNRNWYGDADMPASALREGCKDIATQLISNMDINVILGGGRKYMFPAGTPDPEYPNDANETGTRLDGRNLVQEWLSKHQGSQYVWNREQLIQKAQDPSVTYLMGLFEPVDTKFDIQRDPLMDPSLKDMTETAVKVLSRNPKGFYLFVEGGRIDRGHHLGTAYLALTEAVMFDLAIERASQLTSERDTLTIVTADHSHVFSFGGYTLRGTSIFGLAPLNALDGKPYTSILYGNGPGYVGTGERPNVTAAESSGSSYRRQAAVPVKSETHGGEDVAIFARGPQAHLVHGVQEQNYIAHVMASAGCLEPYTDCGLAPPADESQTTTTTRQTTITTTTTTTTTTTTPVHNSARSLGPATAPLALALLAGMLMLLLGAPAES
Sequence of Paired box protein Pax-8 (Q06710 whole entry): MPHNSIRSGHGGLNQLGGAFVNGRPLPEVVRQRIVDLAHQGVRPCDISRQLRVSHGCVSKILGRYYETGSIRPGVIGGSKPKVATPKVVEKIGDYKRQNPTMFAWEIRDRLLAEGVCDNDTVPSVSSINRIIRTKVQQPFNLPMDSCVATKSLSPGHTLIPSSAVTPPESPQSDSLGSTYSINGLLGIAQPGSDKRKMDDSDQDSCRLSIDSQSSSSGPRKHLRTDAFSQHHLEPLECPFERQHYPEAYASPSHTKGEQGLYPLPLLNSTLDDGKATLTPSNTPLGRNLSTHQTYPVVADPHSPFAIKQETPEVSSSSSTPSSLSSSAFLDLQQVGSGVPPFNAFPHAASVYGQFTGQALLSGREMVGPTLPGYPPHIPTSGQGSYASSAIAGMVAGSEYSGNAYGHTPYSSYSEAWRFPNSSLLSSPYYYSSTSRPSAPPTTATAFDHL

Take `Cc1ccc2nc(NNC(=O)c3ccc(S(=O)(=O)N4CCc5ccccc5C4)cc3)sc2c1`: the IC50 was 3.03 µM (active) in assay [1], 2.7 µM (active) in [4], 9.9 µM (active) in assay [16] and 52.7 µM (active) in assay [17]. Moreover, the EC50 is 499 nM (active) in assay [2]; 13.5 µM (active) in [3]; > 150 µM (not active) in assay [5]; 904 nM (active) in assay [6]; > 350 µM (not active) in [7]; 3.65 µM (active) in [8]. Further, the values for the EC50 in assay [9] and in [11] were > 150 µM (not active) and > 100 µM (inactive), respectively. Moreover, the AC50 in assay [10] was 3.74 µM (active); in assay [12] it was 2.17 µM (active); in [13], 1.62 µM (active); in [14] it was 2.88 µM (active); in assay [15], 1.78 µM (active); in assay [18] it was 3.01 µM (active). Besides, the AC50 is 6.18 µM (active) in assay [19]; 18.3 µM (active) in [20]; 19.5 µM (active) in assay [21]; 14.8 µM (active) in assay [22]; 31.1 µM (active) in assay [23]; 5.81 µM (active) in assay [24]. Also, the AC50 in [25] is 8.28 µM (active); in [26], 31.1 µM (active); in assay [27], 13.7 µM (active); in [28] it was 9.99 µM (active); in [29] it was 9.32 µM (active); in assay [30], 39 µM (active).

Regarding `CC(N=C(S)NC1CCC(C(C)(C)C)CC1)c1ccccc1` (centres undefined), the EC50 in [31] is 22.4 µM (active); in assay [32] it was 39.8 µM (active); in assay [33], 44.3 µM (active); in assay [34], 38.8 µM (active).
